Data published in patent US20250064992A1, “IMAGING METHOD FOR DESIGNER RECEPTOR, ANTAGONIST OR AGONIST, PHARMACEUTICAL, AND COMPANION DIAGNOSTIC AGENT” (priority 2018, published 2025).

How the values were obtained:
hM3D receptor [1] = molecular target: T1, hM3D receptor (Homo sapiens, UniProt P20309, A239G/Y149C); test: 18F-FDG PET glucose metabolism, C22b 1 μg/kg versus solvent, one-way repeated measures ANOVA, hM3D in left amygdala; format: in vivo, monkey; conditions: Macaca mulatta
T1 construct: expressed in transfected cells; host or cells: neurons of the left amygdala of live Macaca mulatta, transduced with AAV2-CMV-hM3D
Procedure: Then, the AAV vector was injected into Macaca mulatta different from in Example 3 (male, 3 kg) in the same manner as in Example 3. On the day 70 days after, a C22b compound solution (1 μg/kg) or a solvent was intravenously administered under isoflurane anesthesia, 1 minute later, ^18F-FDG (224 to 286 MBq) was intravenously administered, and then subjected to PET scanning for 120 minutes. The process was performed four times for each intravenous dose. Note that the solvent was the same as a solvent used for the C22b compound solution (solvent: 0.1 mL/kg of saline containing 1% dimethyl sulfoxide and 5% Tween 20 (surfactant)).
A glucose metabolism image (whole brain activity) when an average of the whole brain was determined as 100% was created from PET data integrated from 30 minutes to 60 minutes after the administration. Then, a site in which the C22b administration caused a statistically significant change compared to a solvent administration was analyzed by one-way repeated measures ANOVA using MATLAB (R2016a) and SPM12.

hM3D receptor [2] = molecular target: T1, hM3D receptor; test: 18F-FDG PET glucose metabolism image after C22b 0.1 mg/kg, hM3D expressed in left amygdala; format: in vivo; conditions: Macaca mulatta
Procedure: On the day 65 days after the AAV vector was injected, a C22b compound (0.1 mg/kg) was intravenously administered to the same Macaca mulatta as in Example 3 under isoflurane anesthesia, 1 minute later, ^18F-FDG (263 MBq) was intravenously administered, and then subjected to PET scanning for 90 minutes. Note that, here, the C22b compound was HY-42110 (manufactured by MedChem Express) which was the compound represented by Formula (III) in which R^1 was methyl, X was imino, and R^2 was hydrogen.
A glucose metabolism image (whole Brain Activity) when an average in the whole brain was determined as 100% was created from PET data integrated for 90 minutes.

hM4D [3] = molecular target: T2, hM4D (Homo sapiens, UniProt P08173, A203G/Y113C); test: PET imaging of axon terminal (substantia nigra pars reticulata), projection target of hM4D-expressing nerve cell in right putamen; format: in vivo; conditions: Japanese macaque, PET average image 30 to 90 minutes after tracer
T2 construct: expressed in transfected cells; host or cells: neurons of the right putamen of a live Japanese macaque, transduced with AAV2-CMV-hM4D
T2 sequence (P08173 1-479 Y113C/A203G): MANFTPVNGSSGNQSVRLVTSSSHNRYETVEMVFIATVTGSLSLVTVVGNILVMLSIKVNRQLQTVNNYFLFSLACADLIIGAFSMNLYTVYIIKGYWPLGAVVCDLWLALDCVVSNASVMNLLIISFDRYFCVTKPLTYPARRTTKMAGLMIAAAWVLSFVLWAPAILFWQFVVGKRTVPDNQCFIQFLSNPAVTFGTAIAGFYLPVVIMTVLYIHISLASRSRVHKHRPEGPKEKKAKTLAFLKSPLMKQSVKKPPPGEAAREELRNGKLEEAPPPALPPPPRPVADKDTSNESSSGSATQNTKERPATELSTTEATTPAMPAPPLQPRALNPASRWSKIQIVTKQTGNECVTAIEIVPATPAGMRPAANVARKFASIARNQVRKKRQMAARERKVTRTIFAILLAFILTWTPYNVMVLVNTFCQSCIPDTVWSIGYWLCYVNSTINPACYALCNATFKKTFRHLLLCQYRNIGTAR
Procedure: (§1) Specifically, the [^11C]C22b was exogenously administered as a tracer in the same manner as in Example 1 and subjected to PET scanning for 90 minutes.
(§2) Specifically, the compound represented by […] ([^11C]C22b) was exogenously administered as a tracer and subjected to PET scanning for 90 minutes.

hM4D receptor [4] = molecular target: T3, hM4D receptor (Homo sapiens, UniProt P08173, A203G/Y113C); conditions: Japanese macaque; for Selectivity (expressed region/unexpressed region): hM4D, ratio of tracer amount per volume; for hM4D-expressed region amount of uptake of tracer: right putamen, PET 30 to 90 minutes after administration
Procedure: (§3) The [^11C]C22b (Example 2) and [^11C]clozapine ([^11C]CLZ, Comparative Example 1) were compared for a property of visualizing hM4D expressed in the Japanese macaque used in Example 1. The hM4D receptor was expressed in the same manner as in Example 1.
(§4) An average image integrated from 30 to 90 minutes after administration of a tracer was created based on a standardized uptake value (SUV) and an amount of uptake in the brain was calculated from PET imaging taken from 30 to 90 minutes after the administration in the frontal plane including the right putamen in which the hM4D was expressed.

hM4D receptor [5] = conditions: Japanese macaque, PET 30 to 90 minutes after administration; for Whole brain amount of uptake of tracer: SUV; for Control region (hM4D-unexpressed region) amount of uptake of tracer: left putamen
Procedure: as §3, §4

hM4D receptor [6] = test: PET imaging with radiolabeled tracer, ligand binding potential image (cerebellum as reference region), hM4D expressed in right putamen; format: in vivo; conditions: Japanese macaque, PET 90 minutes, cerebellum BP determined as 1, non-injection region
Procedure: (§5) The head of Japanese macaque (male/5.5 kg) was fixed to a stereotaxic instrument under general anesthesia, and 6 μL of an adeno-associated virus (AAV) vector (AAV2-CMV-hM4D) for expressing an hM4D receptor in a nerve cell-specific manner was injected for 12 minutes by a Hamilton syringe (10 μL) into a middle portion of the right putamen read from a magnetic resonance imaging (MRI) image taken in advance. Note that, here, the CMV was a promotor for gene expression.
(§6) On the day 427 days after the injection, a compound represented by Formula (II) (hereinafter may be referred to as [^11C]C22b) (364 MBq) serving as a radiolabeled tracer was intravenously administered under isoflurane anesthesia and subjected to PET scanning for 90 minutes.
(§7) An image of a ligand binding potential was created from PET data integrated for 90 minutes using the cerebellum as a reference region (the binding potential (BP) in the cerebellum was determined as 1).

hM4D receptor [7] = molecular target: T3, hM4D receptor; test: as above; format: in vivo; parameters: expressed in transfected cells; host or cells: neurons of the right putamen of a live Japanese macaque, transduced with AAV2-CMV-hM4D; conditions: Japanese macaque
Procedure: as §5, §6, §7

hM3D receptor [8] = format: in vivo; conditions: Macaca mulatta
Procedure: as §5, with “Macaca mulatta (male/4.2” for “Japanese macaque (male/5.5”, “3” for “and 6”, “(AAV2-CMV-hM3D)” for “(AAV2-CMV-hM4D)”, “hM3D” for “hM4D”, “left amygdala” for “right putamen”
(§8) On the day 57 days after the injection, the [^11C]C22b (277 MBq) serving as a radiolabeled tracer was intravenously administered under isoflurane anesthesia and subjected to PET scanning for 90 minutes.

hM3D receptor [9] = molecular target: T1, hM3D receptor; format: in vivo; conditions: Macaca mulatta
Procedure: as §5, with “Macaca mulatta (male/4.2” for “Japanese macaque (male/5.5”, “3” for “and 6”, “(AAV2-CMV-hM3D)” for “(AAV2-CMV-hM4D)”, “hM3D” for “hM4D”, “left amygdala” for “right putamen”
as §8

hM3D receptor [10] = test: PET imaging with radiolabeled tracer, ligand binding potential image (cerebellum as reference region), hM3D expressed in left amygdala; format: in vivo; conditions: Macaca mulatta, PET 90 minutes, cerebellum BP determined as 1, non-injection region
Procedure: as §5, with “Macaca mulatta (male/4.2” for “Japanese macaque (male/5.5”, “3” for “and 6”, “(AAV2-CMV-hM3D)” for “(AAV2-CMV-hM4D)”, “hM3D” for “hM4D”, “left amygdala” for “right putamen”
as §8
(§9) An image of a ligand binding potential was created from PET data integrated for 90 minutes using the cerebellum as a reference region (the binding potential (BP) of the cerebellum was determined as 1). A portion shown by an arrow in FIG. 6 represents the left amygdala into which the AAV vector has been injected.

hM3D receptor [11] = molecular target: T1, hM3D receptor; test: as above; format: in vivo; conditions: Macaca mulatta
Procedure: as §5, with “Macaca mulatta (male/4.2” for “Japanese macaque (male/5.5”, “3” for “and 6”, “(AAV2-CMV-hM3D)” for “(AAV2-CMV-hM4D)”, “hM3D” for “hM4D”, “left amygdala” for “right putamen”
as §8, §9

hM4D [12] = test: PET imaging of axon terminal (substantia nigra pars reticulata), projection target of hM4D-expressing nerve cell in right putamen; format: in vivo; conditions: Japanese macaque, PET average image 30 to 90 minutes after tracer
Procedure: as §1, §2

T1 sequence (P20309 whole entry Y149C/A239G, the tested form may be a part): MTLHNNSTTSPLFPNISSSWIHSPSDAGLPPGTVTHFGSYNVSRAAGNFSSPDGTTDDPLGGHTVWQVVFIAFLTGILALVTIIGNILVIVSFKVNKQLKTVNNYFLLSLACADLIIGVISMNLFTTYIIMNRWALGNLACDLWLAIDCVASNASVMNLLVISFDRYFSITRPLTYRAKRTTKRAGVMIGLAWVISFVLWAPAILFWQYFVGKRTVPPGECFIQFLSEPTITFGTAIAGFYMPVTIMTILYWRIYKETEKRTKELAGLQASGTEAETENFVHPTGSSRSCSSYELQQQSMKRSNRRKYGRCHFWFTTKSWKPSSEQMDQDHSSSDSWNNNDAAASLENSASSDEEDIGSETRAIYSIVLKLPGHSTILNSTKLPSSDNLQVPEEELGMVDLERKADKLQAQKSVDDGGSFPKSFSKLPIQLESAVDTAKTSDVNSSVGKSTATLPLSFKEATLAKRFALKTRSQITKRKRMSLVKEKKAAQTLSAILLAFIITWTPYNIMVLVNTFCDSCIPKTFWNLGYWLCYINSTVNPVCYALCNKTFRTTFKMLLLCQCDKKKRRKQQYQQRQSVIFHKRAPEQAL

SMILES | t-value for the AAV vector injected region (one-way repeated measures ANOVA) (hM3D receptor [1]; C22b 1 μg/kg i.v. vs solvent, left amygdala) | glucose metabolism activity in left amygdala, C22b versus solvent administration (hM3D receptor [1]; C22b 1 μg/kg i.v., 18F-FDG PET 30 to 60 minutes, uncorrected p<0.001) | glucose metabolism in left amygdala (AAV injected) relative to control region (right amygdala) (hM3D receptor [2]; C22b 0.1 mg/kg i.v., 18F-FDG PET 90 minutes) [times] | action at hM3D receptor (hM3D receptor [2]; glucose metabolism activated in hM3D-expressing left amygdala) | visualisation of hM4D in the axon terminal (substantia nigra pars reticulata) (hM4D [3]) | Selectivity (expressed region/unexpressed region) (hM4D receptor [4]) | hM4D-expressed region amount of uptake of tracer (hM4D receptor [4]) [g/cc] | Whole brain amount of uptake of tracer (hM4D receptor [5]) [g/cc] | Control region (hM4D-unexpressed region) amount of uptake of tracer (hM4D receptor [5]) [g/cc] | binding potential in control region (left putamen) (hM4D receptor [6]) | binding potential in the right putamen into which the AAV vector had been injected (hM4D receptor [7]; i.v. tracer 364 MBq, PET 90 minutes, cerebellum BP determined as 1, hM4D-expressed region) | binding potential of injected region relative to non-injection region (hM4D receptor [7]; right putamen (hM4D) vs left putamen) [times] | Whole brain amount of uptake of tracer (hM3D receptor [8]) [g/cc] | Control region (hM3D-unexpressed region) amount of uptake of tracer (hM3D receptor [8]; opposite region) [g/cc] | Selectivity (expressed region/unexpressed region) (hM3D receptor [9]; hM3D, ratio of tracer amount per volume) | hM3D-expressed region amount of uptake of tracer (hM3D receptor [9]; left amygdala) [g/cc] | binding potential in control region (right amygdala) (hM3D receptor [10]) | binding potential in the left amygdala into which the AAV vector had been injected (hM3D receptor [11]; i.v. tracer 277 MBq, PET 90 minutes, cerebellum BP determined as 1, hM3D-expressed region) | binding potential of injected region relative to non-injection region (hM3D receptor [11]; left amygdala (hM3D) vs right amygdala) [times] | binding to other nerve cells or brain tissues (off-target) (hM4D [12])
CN1CCN(C2=Nc3ccccc3Nc3ccccc32)CC1 [C22b] | > 5.2 | significantly high | 1.88 | acted as an agonist | – | – | – | – | – | – | – | – | – | – | – | – | – | – | – | –
[11CH3]N1CCC(C2=Nc3ccccc3Nc3ccccc32)CC1 [[^11C]C22b] | – | – | – | – | hM4D was confirmed to be expressed in the axon terminal | 2.31 | 6.32 | 2.47 | 2.74 | 0.28 | 3.07 | 11 | 2.42 | 2.60 | 1.45 | 3.77 | 0.31 | 1.05 | 3.4 | –
CN1CCN(C2=Nc3cc(Cl)ccc3Nc3ccccc32)CC1 [[^11C]clozapine, [^11C]8-chloro-11-(4-methylpiperazine-1-yl)-5H-dibenzo[b,e] [1,4]diazepine, reference compound] | – | – | – | – | hM4D was confirmed to be expressed in the axon terminal | 1.25 | 5.73 | 3.24 | 4.57 | – | – | – | – | – | – | – | – | – | – | also allowed to bind to nerve cells other than the nerve cell of interest or brain tissues to some extent
